From publication PMC7762957, “Snapshots during the catalytic cycle of a histidine acid phytase reveal an induced-fit structural mechanism” (The Journal of Biological Chemistry, 2020)

Legend:
[1] = target: BlMINPP (Bifidobacterium longum, UniProt B7GTV0); assay: X-ray crystal structure of complex, […] A; type: binding; design: gene Blon_0263; N-terminal His6 tag cleaved (WT: pOPINF, 3C protease; variants: pET28a, thrombin); E. coli Rosetta(DE3) pLysS; conditions: non-hydrolysable substrate analogue in active site, two orientations; co-crystallised with 1 mM InsS6
[2] = target: T1, AnPhyA (Aspergillus niger, UniProt P34752); assay: HPLC of inositol polyphosphate products; type: biochemical; conditions: pH 5.5, 200 mM sodium acetate, 150 mM NaCl; 1 mM substrate, 25 nM enzyme
T1 construct: gene phyA; codon-optimised, N-terminal 3C site, C-terminal His6; secreted from Pichia pastoris KM71H; Ni-NTA purified
T1 sequence (P34752 24-467): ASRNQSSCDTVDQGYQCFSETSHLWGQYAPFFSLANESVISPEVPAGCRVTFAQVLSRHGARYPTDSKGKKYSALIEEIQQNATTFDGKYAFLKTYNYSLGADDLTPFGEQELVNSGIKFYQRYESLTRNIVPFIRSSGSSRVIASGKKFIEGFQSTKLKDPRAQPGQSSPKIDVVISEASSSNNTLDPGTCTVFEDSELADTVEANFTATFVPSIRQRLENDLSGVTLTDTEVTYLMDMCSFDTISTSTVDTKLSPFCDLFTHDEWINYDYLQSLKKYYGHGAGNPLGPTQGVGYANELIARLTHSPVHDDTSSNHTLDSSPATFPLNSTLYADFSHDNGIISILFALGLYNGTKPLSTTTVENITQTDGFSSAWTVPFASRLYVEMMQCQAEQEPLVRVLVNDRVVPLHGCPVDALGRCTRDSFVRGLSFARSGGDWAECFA

[3] = target: T2, BtMINPP (Bacteroides thetaiotaomicron, UniProt Q89YI8); assay: HPLC of inositol polyphosphate products; type: biochemical; conditions: pH 5.5, 200 mM sodium acetate, 150 mM NaCl; 1 mM substrate, 25 nM enzyme
T2 construct: gene BT_4744
T2 sequence (Q89YI8 21-425): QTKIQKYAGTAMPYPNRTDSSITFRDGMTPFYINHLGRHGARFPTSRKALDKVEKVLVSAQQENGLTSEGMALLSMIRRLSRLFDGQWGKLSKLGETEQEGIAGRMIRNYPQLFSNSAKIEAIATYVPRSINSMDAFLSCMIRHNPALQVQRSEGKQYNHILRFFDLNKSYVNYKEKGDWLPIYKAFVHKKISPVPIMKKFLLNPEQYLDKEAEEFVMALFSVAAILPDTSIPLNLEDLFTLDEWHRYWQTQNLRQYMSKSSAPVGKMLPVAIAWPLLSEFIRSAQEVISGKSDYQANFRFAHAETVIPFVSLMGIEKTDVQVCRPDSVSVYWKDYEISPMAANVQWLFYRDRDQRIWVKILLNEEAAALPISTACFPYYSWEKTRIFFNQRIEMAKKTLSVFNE

[4] = target: T3, EcAppA (Escherichia coli, UniProt P07102); assay: HPLC of inositol polyphosphate products; type: biochemical; conditions: pH 5.5, 200 mM sodium acetate, 150 mM NaCl; 1 mM substrate, 25 nM enzyme
T3 construct: gene appA; pOPINB, N-terminal cleavable His tag, cytoplasmic expression in E. coli Shuffle Express T7; Ni-NTA and gel filtration
T3 sequence (P07102 23-432): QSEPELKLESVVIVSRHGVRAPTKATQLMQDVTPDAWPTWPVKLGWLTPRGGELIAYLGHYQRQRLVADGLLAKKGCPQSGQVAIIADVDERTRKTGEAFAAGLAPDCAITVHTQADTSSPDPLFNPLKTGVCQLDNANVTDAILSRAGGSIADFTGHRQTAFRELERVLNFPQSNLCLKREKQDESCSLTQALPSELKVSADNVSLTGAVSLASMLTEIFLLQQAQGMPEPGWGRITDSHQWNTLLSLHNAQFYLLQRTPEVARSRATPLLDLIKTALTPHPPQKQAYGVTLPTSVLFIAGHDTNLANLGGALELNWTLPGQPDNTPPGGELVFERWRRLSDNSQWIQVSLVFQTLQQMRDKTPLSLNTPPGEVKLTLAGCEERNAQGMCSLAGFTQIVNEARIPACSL

[5] = substrate: O=P(O)(O)O[C@H]1[C@H](OP(=O)(O)O)[C@@H](OP(=O)(O)O)[C@H](OP(=O)(O)O)[C@@H](OP(=O)(O)O)[C@H]1OP(=O)(O)O; assay: purified protein; conditions: pH 5.5, 200 mM sodium acetate, 0.15 M NaCl, room temperature, 25 nM enzyme

O=S(=O)(O)O[C@H]1[C@H](OS(=O)(=O)O)[C@@H](OS(=O)(=O)O)[C@H](OS(=O)(=O)O)[C@@H](OS(=O)(=O)O)[C@H]1OS(=O)(=O)O [InsS6]
X-ray crystal structure of complex, 1.84 A [1]: A crystal of the purified recombinant enzyme grown in the presence of an excess InsS6

O=P(O)(O)O[C@H]1[C@H](OP(=O)(O)O)[C@@H](OP(=O)(O)O)[C@H](OP(=O)(O)O)[C@@H](OP(=O)(O)O)[C@H]1OP(=O)(O)O [InsP6, myo-Inositol 1,2,3,4,5,6-hexakisphosphate]
HPLC of inositol polyphosphate products [2]: products of InsP6 hydrolysis by BlMINPP, BtMINPP, A. niger PhyA (AnPhyA)
HPLC of inositol polyphosphate products [3]: HPLC chromatograms of the products of InsP6 hydrolysis by BlMINPP, BtMINPP
HPLC of inositol polyphosphate products [4]: E.coli AppA, which is accepted to possess high positional specificity

B1: BlMINPP (Bifidobacterium longum subsp. infantis ATCC 15697 = JCM 1222 = DSM 20088) (protein)
chain: MEADGRYYSSKQPYVAPNDATASSYSKAPKGYGPIYTESMARHGSRGLSSYKYDALLMRMAETAARDGGFKSEAIKAEFVKNLSGITAANVENGYGMLTGQGAQQHYGIGERAYQRNRSLFDQAAADGGTIAYQSSGEARATESGENFEKGFNEASGGRLIGNVSAPTNPADSGNGKDFQKNPDTLYFHKVQNPDGTSKVPGTKAYDIANNYQNFVANDATIAGAEKTIGDNVDVKRASHDLLSQIFTEEFLAKLENGEYKWYNTTDGTKKGGKNCAPGADASKDPDACGEVSKKIKSEYDAAMDLYNLYIIAADMHNENTGDHTFAFDQYFQGAYADDARMFAWALDAEDFYEKGPSYAGQNETYSIAQPLLDDFLNTIDARVNGGSTVATFRFAHAETMMPFAALLGLPGSTQQAPASTTDVYTYGNNEWRGESVTPMAANVQWDVYARKGEDPATGQRYTPIVRMLYNENEVPFRSECTPVADGSTWYKLTELKSCLAADHKTLGQDARI
Km [5]: 54.5 ± 8.4 µM
kcat [5]: 46.8 s⁻¹
kcat/Km [5]: 900000 M⁻¹ s⁻¹
